For 39 compounds, Activity and MIC results are on record in ChEMBL document CHEMBL1147957, “Synthesis and antitubercular activity of phenothiazines with reduced binding to dopamine and serotonin receptors” (2007).

The structures appear in SMILES notation. ≈ marks a conversion by molar mass, not a printed value. Where “and” joins values, the source holds several entries; their conditions need not be identical. Identical values can stand only once.

Experiment [1] concerns the target T1, 5-hydroxytryptamine receptor 1A (Homo sapiens) (UniProt P08908).
T1 sequence (whole entry): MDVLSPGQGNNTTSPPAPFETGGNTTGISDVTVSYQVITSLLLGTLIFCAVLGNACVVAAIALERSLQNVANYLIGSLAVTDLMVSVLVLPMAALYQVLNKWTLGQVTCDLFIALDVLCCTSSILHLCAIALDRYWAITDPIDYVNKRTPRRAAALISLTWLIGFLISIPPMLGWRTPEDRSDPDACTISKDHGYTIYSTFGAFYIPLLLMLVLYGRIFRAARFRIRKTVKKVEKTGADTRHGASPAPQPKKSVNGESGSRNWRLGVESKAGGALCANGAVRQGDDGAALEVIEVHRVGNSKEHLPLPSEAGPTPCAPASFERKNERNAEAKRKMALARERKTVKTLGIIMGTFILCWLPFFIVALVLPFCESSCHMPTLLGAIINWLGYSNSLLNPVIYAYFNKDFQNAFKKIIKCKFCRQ
As to the kind of experiment: Displacement of [3H]8-OH-DPAT from 5HT1A receptor at 10 uM.

Experiment [2] deals with D(2) dopamine receptor (Homo sapiens) (UniProt P14416). As to the kind of experiment: Displacement of [3H]YM091512 from dopamine D2 receptor at 10 uM.
Experiment [3] deals with T2, 5-hydroxytryptamine receptor 2C (Homo sapiens) (UniProt P28335).
T2 sequence (whole entry): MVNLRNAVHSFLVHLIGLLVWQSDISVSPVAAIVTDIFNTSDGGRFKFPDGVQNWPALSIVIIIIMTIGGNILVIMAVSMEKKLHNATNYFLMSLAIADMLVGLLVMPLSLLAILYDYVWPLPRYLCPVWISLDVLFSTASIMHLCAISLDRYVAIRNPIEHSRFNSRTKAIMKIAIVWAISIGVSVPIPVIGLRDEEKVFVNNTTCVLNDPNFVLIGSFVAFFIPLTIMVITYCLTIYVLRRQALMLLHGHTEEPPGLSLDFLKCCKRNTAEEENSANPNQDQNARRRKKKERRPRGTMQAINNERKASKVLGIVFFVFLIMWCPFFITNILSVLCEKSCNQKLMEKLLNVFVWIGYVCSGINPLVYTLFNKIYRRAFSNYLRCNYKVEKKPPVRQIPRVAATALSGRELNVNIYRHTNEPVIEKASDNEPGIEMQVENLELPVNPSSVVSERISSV
Description: Displacement of [3H]mesulergine from 5HT2C receptor at 10 uM.

Experiment [4] deals with Mycobacterium tuberculosis. Description: Antitubercular activity against Mycobacterium tuberculosis H37Rv by MABA assay. It counts as functional.

Sequence of D(2) dopamine receptor (Homo sapiens) (P14416 whole entry): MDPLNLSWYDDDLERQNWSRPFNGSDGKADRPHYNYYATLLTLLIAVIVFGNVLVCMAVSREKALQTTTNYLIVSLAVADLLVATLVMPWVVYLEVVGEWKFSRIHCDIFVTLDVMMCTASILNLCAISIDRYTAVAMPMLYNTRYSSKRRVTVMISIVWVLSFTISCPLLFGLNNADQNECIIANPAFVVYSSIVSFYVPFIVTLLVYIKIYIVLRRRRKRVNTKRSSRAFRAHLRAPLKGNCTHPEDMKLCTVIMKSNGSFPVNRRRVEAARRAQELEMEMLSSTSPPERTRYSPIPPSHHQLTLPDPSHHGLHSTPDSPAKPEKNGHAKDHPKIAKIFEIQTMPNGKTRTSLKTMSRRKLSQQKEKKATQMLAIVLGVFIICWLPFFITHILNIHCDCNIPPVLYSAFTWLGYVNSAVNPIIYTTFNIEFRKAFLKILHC

Take `FC(F)(F)c1ccc2c(c1)N(Cc1ccc(CN3c4ccccc4Sc4ccc(C(F)(F)F)cc43)cc1)c1ccccc1S2`: the Activity was found to be 0% in experiment [1], 40% in experiment [2] and 0% in experiment [3]. Also, the MIC in experiment [4] was 2 µg/mL (≈ 3.14 µM).
For `FC(F)(F)c1ccc2c(c1)N(CCCN1CCN(c3ncccn3)CC1)c1ccccc1S2`, the Activity came to 94% in experiment [1], 50% in experiment [2] and 85% in experiment [3]. In experiment [4], this compound displayed an MIC of 16 µg/mL (≈ 33.9 µM).
As for `CN1CCCC(CN2c3ccccc3Sc3cccnc32)C1` (centres undefined), the Activity in experiment [1] is 19%; in experiment [2], 86%; in experiment [3] it was 47%. Moreover, the MIC in experiment [4] was > 10 µg/mL.
The corresponding values for `CC(CO)NCCCN1c2ccccc2Sc2ccc(C(F)(F)F)cc21` (centres undefined) are 58%, 100%, 91% and 4.6 µg/mL (≈ 12 µM).
As for `CN1CCCC(CN2c3ccccc3Sc3cc(F)ccc32)C1` (centres undefined), the Activity in experiment [1] stood at 7%; in experiment [2], 87%; in experiment [3] it was 89%. Also, inhibition of growth in experiment [4] (MIC) required 10.8 µg/mL (≈ 32.9 µM).
As for `CSc1ccc2c(c1)Sc1ccccc1N2CC1CCCN(C)C1` (centres undefined), the Activity in experiment [1] was 67%. In experiment [4], this compound returned an MIC of 11.6 µg/mL (≈ 32.5 µM).
For the compound `CN1CCN(CCCN2c3ccccc3Sc3ccc(C(F)(F)F)cc32)CC1`, the Activity in experiment [1] was 76% and 67%; in experiment [2], 100% and 98%; in experiment [3], 91% and 97%.
For `CC1CN(CCCN2c3ccccc3Sc3ccc(C(F)(F)F)cc32)CC(C)O1` (centres undefined), the Activity in experiment [1] was 98%; in experiment [2] it was 99%; in experiment [3] it was 30%. Further, the MIC in experiment [4] was > 20 µg/mL.
With `FC(F)(F)c1ccc2c(c1)N(Cc1ccc(CNCc3ccccc3)cc1)c1ccccc1S2`, the values for the Activity in experiment [1], in experiment [2] and in experiment [3] were 0%, 13% and 0%, respectively. The MIC in experiment [4] is > 20 µg/mL.
Consider `CN1CCCC(CN2c3ccccc3Sc3ccc(-c4ccccc4)cc32)C1` (centres undefined), for which the Activity was found to be 1% in experiment [1], 97% in experiment [2] and 14% in experiment [3]. The MIC in experiment [4] came out at 4.5 µg/mL (≈ 11.6 µM).
For the compound `CCN(CC)Cc1ccc(CN2c3ccccc3Sc3ccc(C(F)(F)F)cc32)cc1`, the Activity in experiment [1] is 23%; in experiment [2], 97%; in experiment [3], 57%. For the same compound, the MIC in experiment [4] is > 10 µg/mL.
On the same counts, the results for `FC(F)(F)c1ccc2c(c1)N(CCCNc1cccc(Oc3ccccc3)c1)c1ccccc1S2` are 0%, 0%, 5% and > 20 µg/mL.
`FC(F)(F)c1ccc2c(c1)N(Cc1ccc(CN3CCN(c4ncccn4)CC3)cc1)c1ccccc1S2`: the Activity turned out to be 10% in experiment [1], 72% in experiment [2] and 0% in experiment [3]. The MIC in experiment [4] is > 20 µg/mL.
Compound `CN1CCN(CCCN2c3ccccc3Sc3ccc(C(F)(F)F)cc32)CC1` [TRIFLUOPERAZINE] yielded an MIC in experiment [4] of 7.6 µg/mL (≈ 18.7 µM).
For `FC(F)(F)c1ccc2c(c1)N(Cc1ccc(CNc3cccc(Oc4ccccc4)c3)cc1)c1ccccc1S2`, the figures for the Activity in experiment [1], in experiment [2] and in experiment [3] were 0%, 26% and 0%, respectively. Besides, in experiment [4], the minimum inhibitory concentration (MIC) was > 20 µg/mL.
For the compound `CN1CCCC(CN2c3ccccc3Sc3ccccc32)C1` (centres undefined) [MEPAZINE], the Activity came out at 0% in experiment [1], 88% in experiment [2] and 29% in experiment [3]. The compound further showed an MIC in experiment [4] of 17 µg/mL (≈ 54.8 µM).
Turning to `CN1CCCC(CN2c3ccccc3Sc3cc(-c4ccccc4)ccc32)C1` (centres undefined), the Activity in experiment [1] is 0%; in experiment [2] it was 96%; in experiment [3], 58%. In experiment [4], the MIC came out at 2.1 µg/mL (≈ 5.43 µM).
Turning to `CN1CCCC(CN2c3ccccc3Sc3ccc(C(F)(F)F)cc32)C1` (centres undefined), the Activity worked out at 5% in experiment [1], 87% in experiment [2] and 56% in experiment [3]. Moreover, in experiment [4], inhibition of growth (MIC) required 7.2 µg/mL (≈ 19 µM).
Consider `FC(F)(F)c1ccc2c(c1)N(Cc1ccc(CNc3nccs3)cc1)c1ccccc1S2`, for which the Activity in experiment [1] is 0%; in experiment [2] it was 11%; in experiment [3] it was 0%. In addition, the MIC in experiment [4] was > 10 µg/mL.
As for `OC1CCN(CCCN2c3ccccc3Sc3ccc(C(F)(F)F)cc32)C1` (centres undefined), the Activity in experiment [1] came out at 62%; in experiment [2] it was 74%; in experiment [3], 95%. Moreover, inhibition of growth in experiment [4] (MIC) required 11 µg/mL (≈ 27.9 µM).
Regarding `COc1ccc2c(c1)Sc1ccccc1N2CC1CCCN(C)C1` (centres undefined), the Activity in experiment [1] was 0%; in experiment [2], 75%; in experiment [3], 41%. Also, the MIC in experiment [4] was > 20 µg/mL.
With `OC1CCN(Cc2ccc(CN3c4ccccc4Sc4ccc(C(F)(F)F)cc43)cc2)C1` (centres undefined), the Activity in experiment [1] stood at 0%; in experiment [2], 79%; in experiment [3], 65%. Further, the MIC in experiment [4] was determined as 8.4 µg/mL (≈ 18.4 µM).
On to `FC(F)(F)c1ccc2c(c1)N(CCCNc1nccs1)c1ccccc1S2`, for which the Activity in experiment [1] amounted to 54%; in experiment [2], 95%; in experiment [3], 81%. Besides, inhibition of growth in experiment [4] (MIC) required 14 µg/mL (≈ 34.4 µM).
Regarding `CN1CCN(Cc2ccc(CN3c4ccccc4Sc4ccc(C(F)(F)F)cc43)cc2)CC1`, the Activity in experiment [1] was determined as 0%; in experiment [2], 14%; in experiment [3], 0%. The compound also gave a minimal inhibitory concentration (MIC) in experiment [4] of 15 µg/mL (≈ 31.9 µM).
For `CN1CCCC(CN2c3ccccc3Sc3cc(N4CCOCC4)ccc32)C1` (centres undefined), the Activity amounted to 0% in experiment [1], 59% in experiment [2] and 7% in experiment [3]. Moreover, the MIC in experiment [4] is > 2 µg/mL.
Take `Cc1ccc2c(c1)Sc1ccccc1N2CC1CCCN(C)C1` (centres undefined): the Activity in experiment [1] worked out at 0%; in experiment [2], 93%; in experiment [3], 26%. Further, in experiment [4], the minimum inhibitory concentration (MIC) was determined as 7.2 µg/mL (≈ 22.2 µM).
In the case of `FC(F)(F)c1ccc2c(c1)N(CCCN1c3ccccc3Sc3ccc(C(F)(F)F)cc31)c1ccccc1S2`, the Activity in experiment [1] is 67%; in experiment [2], 48%; in experiment [3] it was 83%. In experiment [4], this compound displayed a minimum inhibitory concentration (MIC) of 2.3 µg/mL (≈ 4 µM).
As to `CN(C)CCCN1c2ccccc2Sc2ccc(Cl)cc21.Cl` [CHLORPROMAZINE HYDROCHLORIDE], the Activity came to 44% in experiment [1], 96% in experiment [2] and 86% in experiment [3]. Besides, the MIC in experiment [4] was determined as 6 µg/mL.
With `CN(CCCN1c2ccccc2Sc2ccc(C(F)(F)F)cc21)Cc1ccccc1`, the Activity was 31% in experiment [1], 99% in experiment [2] and 68% in experiment [3]. Further, in experiment [4], the MIC is > 20 µg/mL.
For `FC(F)(F)c1ccc2c(c1)N(CCCNCc1ccccc1)c1ccccc1S2`, the Activity came to 61% in experiment [1], 97% in experiment [2] and 85% in experiment [3]. In experiment [4], the MIC was 4.2 µg/mL (≈ 10.1 µM).
On the same counts, the results for `CN(Cc1ccccc1)Cc1ccc(CN2c3ccccc3Sc3ccc(C(F)(F)F)cc32)cc1` are 4%, 66%, 0% and > 20 µg/mL.
Turning to `CN1CCCC(CN2c3ccccc3Sc3cnccc32)C1` (centres undefined), the MIC in experiment [4] was > 20 µg/mL.
As to `FC(F)(F)c1ccc2c(c1)N(Cc1ccc(CNc3ccccn3)cc1)c1ccccc1S2`, the figures for the Activity in experiment [1], in experiment [2] and in experiment [3] were 0%, 90% and 53%, respectively. Further, the MIC in experiment [4] was > 10 µg/mL.
In the case of `CN1CCCC(CN2c3ccccc3Sc3cc(Cl)ccc32)C1` (centres undefined), the Activity in experiment [1] is 0%; in experiment [2], 94%; in experiment [3], 67%. In addition, it took 14.3 µg/mL (≈ 41.5 µM) to inhibit growth in experiment [4] (MIC).
`CC(CO)NCc1ccc(CN2c3ccccc3Sc3ccc(C(F)(F)F)cc32)cc1` (centres undefined): the Activity turned out to be 24% in experiment [1], 93% in experiment [2] and 59% in experiment [3]. The compound further returned an MIC in experiment [4] of 6.4 µg/mL (≈ 14.4 µM).
On to `CCN(CC)CCCN1c2ccccc2Sc2ccc(C(F)(F)F)cc21`, for which the figures for the Activity in experiment [1], in experiment [2] and in experiment [3] were 63%, 100% and 94%, respectively. Further, in experiment [4], the MIC is 15 µg/mL (≈ 39.4 µM).
On the same counts, the results for `CC1CN(Cc2ccc(CN3c4ccccc4Sc4ccc(C(F)(F)F)cc43)cc2)CC(C)O1` (centres undefined) are 0%, 75%, 7% and > 20 µg/mL.
In experiment [4], `CN1CCN(CCCN2c3ccccc3Sc3ccc(C(F)(F)F)cc32)CC1.Cl` had an MIC of 6 µg/mL.
As for `FC(F)(F)c1ccc2c(c1)N(CCCNc1ccccn1)c1ccccc1S2`, the Activity amounted to 45% in experiment [1], 85% in experiment [2] and 93% in experiment [3]. In experiment [4], this compound had an MIC of 20 µg/mL (≈ 49.8 µM).
